Assay results reported in patent US8476255B2, “Histone deacetylase inhibitors” (Orchid Chemicals & Pharmaceuticals Limited, priority 2007, dated 2013).
Where two headings read alike, the source gives them in different places.

Experiments:
p21 = p21 induction, sandwich ELISA in HCT116 lysate; assay type: cell-based; conditions: HCT116, 18 hours
Procedure: (§1) Acetylated histone (H3), acetylated Tubulin and p21 levels were detected in cell lysate by sandwich ELISA method (Cell Signaling Technology, USA, Cat No: 7232, 7204 & 7167 respectively) by following manufacturer's instructions. Briefly, colon cancer cells (HCT116. 10,000/well) were incubated with test compound (1 and 10 μM) or medium (control) for 4 hours at 37° C. in CO2 incubator. The incubation lasted 18 hours for p21 induction. After incubation, cell lysates were prepared in cell lysis buffer by sonication on ice. The lysates were collected after centrifugation and subjected to ELISA test procedure. 100 μL of each diluted cell lysate in dilution buffer (1:1) was added to appropriate capture antibody coated microwells and incubated overnight at 4° C. After washing, 100 μL of detection antibody was added for 1 hour at 37° C. After second washing, 100 μL of HRP-linked secondary antibody was added for 30 min at 37° C. Finally, after appropriate washing, 100 μL of TMB substrate was added for 10 min at 37° C. followed by 100 μL of stop solution. The absorbance of individual wells was read using a spectrophotometer at 450 nm (A450).

U251 (glioma) cells = test: Anti-cancer screen (MTT), U251; assay type: cell-based; conditions: Homo sapiens; for GI50: read-out: Cell growth inhibition U251 (Glioma) GI50; for LC50 (concentration giving 50% net cell kill relative to the time-zero cell count): read-out: Cell growth inhibition U251 (Glioma) LC50; for IC (TGI): read-out: Cell growth inhibition U251 (Glioma) TGI
How it was run: (§2)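 Growth inhibition is measured by MTT reduction: after 48 h drug exposure at 0.01 to 100 μM, cells receive MTT for 3 h and dissolved formazan is read at 570 nm, with a time-zero plate read when compounds are added.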

acetylated Tubulin = test: Tubulin acetylation, sandwich ELISA in HCT116 lysate; assay type: cell-based; conditions: HCT116, 4 hours
Procedure: as §1

[1] = test system: NCIH460, HCT116 and U251 cells; test: Anti-cancer screen, mean GI50 over cell lines; assay type: cell-based; conditions: read-out: Cell growth inhibition Mean GI50
How it was run: as §2

Acetylated histone (H3) = test: Histone (H3) acetylation, sandwich ELISA in HCT116 lysate; assay type: cell-based; conditions: HCT116, 4 hours
Procedure: as §1

[2] = test system: HDAC (Mouse Liver Extract); test: HDAC inhibition assay using Boc-Lys(Ac)-AMC substrate; assay type: biochemical; conditions: mouse liver enzyme
How it was run: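 Released AMC measured at 360 nm excitation, 460 nm emission after 15-30 min trypsin development at 37° C. Preceding deacetylation: mouse liver extract with acetylated-lysine AMC substrate, 30 min at 37° C after 5-min preincubation; blanks were buffer alone and substrate alone.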

NCIH460 (lung) cells = test: Anti-cancer screen (MTT), NCIH460; assay type: cell-based; conditions: Homo sapiens; for GI50: read-out: Cell growth inhibition NCIH460 (Lung) GI50; for LC50: read-out: Cell growth inhibition NCIH460 (Lung) LC50; for IC (TGI): read-out: Cell growth inhibition NCIH460 (Lung) TGI
How it was run: as §2

HCT 116 (colon) cells = test: Anti-cancer screen (MTT), HCT 116; assay type: cell-based; conditions: Homo sapiens; for GI50: read-out: Cell growth inhibition HCT116 (Colon) GI50; for CC50: read-out: Cell growth inhibition HCT116 (Colon) LC50; for IC (TGI): read-out: Cell growth inhibition HCT116 (Colon) TGI
How it was run: as §2

recombinant HDAC1 enzyme = recombinant HDAC1 enzyme (Homo sapiens (Human), UniProt Q13547); test: HDAC1 inhibitory activity (isoform selectivity); assay type: biochemical; conditions: read-out: HDAC1 inhibition (IC50)
Sequence of recombinant HDAC1 enzyme (Q13547 whole entry, canonical isoform): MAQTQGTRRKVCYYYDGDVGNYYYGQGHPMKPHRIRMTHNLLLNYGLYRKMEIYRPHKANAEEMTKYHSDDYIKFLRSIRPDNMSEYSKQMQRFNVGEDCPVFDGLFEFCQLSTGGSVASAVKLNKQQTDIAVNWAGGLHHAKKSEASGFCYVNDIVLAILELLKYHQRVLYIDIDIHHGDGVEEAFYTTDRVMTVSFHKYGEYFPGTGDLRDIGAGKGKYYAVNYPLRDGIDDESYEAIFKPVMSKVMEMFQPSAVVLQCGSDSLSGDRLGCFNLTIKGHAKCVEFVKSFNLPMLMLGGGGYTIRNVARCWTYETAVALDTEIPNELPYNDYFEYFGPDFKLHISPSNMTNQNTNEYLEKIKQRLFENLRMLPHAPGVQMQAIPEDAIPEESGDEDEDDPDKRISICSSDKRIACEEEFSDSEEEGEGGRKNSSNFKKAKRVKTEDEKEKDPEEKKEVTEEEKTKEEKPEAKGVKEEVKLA
Procedure: The assay was carried out, as previously described using recombinant HDAC1 enzyme (BIOMOL, USA) and following manufacturer's instructions.

[3] = NCI-H460, NCIH460, 48 hours, MTT

| SMILES | GI50 (U251 (glioma) cells; U-251, U251, 48 hours, MTT) [µM] | LC50 (concentration giving 50% net cell kill relative to the time-zero cell count) (U251 (glioma) cells; U-251, U251, 48 hours, MTT) [µM] | IC (TGI) (U251 (glioma) cells; U-251, U251, 48 hours, MTT) [µM] | GI50 ([1]; mean over cell lines) [µM] | HDAC inhibition % (1 μM) [2] [%] | HDAC inhibition % (10 μM) [2] [%] | IC50 [2] [µM] | GI50 (NCIH460 (lung) cells; [3]) [µM] | LC50 (NCIH460 (lung) cells; [3]) [µM] | IC (TGI) (NCIH460 (lung) cells; [3]) [µM] | GI50 (HCT 116 (colon) cells; HCT-116, HCT116, 48 hours, MTT) [µM] | CC50 (HCT 116 (colon) cells; HCT-116, HCT116, 48 hours, MTT) [µM] | IC (TGI) (HCT 116 (colon) cells; HCT-116, HCT116, 48 hours, MTT) [µM] | IC50 (recombinant HDAC1 enzyme) [µM] | also measured |
| --- | --- | --- | --- | --- | --- | --- | --- | --- | --- | --- | --- | --- | --- | --- | --- |
| CSc1ccc(/C=C(/C(=O)NCc2ccc(C(=O)NO)cc2)c2cccnc2)cc1 [Compound 55, 4-((2-(Pyridin-3-yl)-3-(4-methylthiophenyl)acrylamido)methyl)-N-hydroxybenzamide] | 0.2 | 56 | 0.4 | 0.8 | 85.7 | 95.1 | 0.02 | 1 | > 100 | 39 | 1.1 | 48 | 6.2 |  | P21 induction (Fold increase) (p21; 1 μM): 1.3 Fold increase; P21 induction (Fold increase) (p21; 10 μM): 2.5 Fold increase; Tubulin acetylation (Fold increase) (acetylated Tubulin; 1 μM): 10.4 Fold increase; Tubulin acetylation (Fold increase) (acetylated Tubulin; 10 μM): 11 Fold increase; H3 acetylation (Fold increase) (Acetylated histone (H3); 1 μM): 4.2 Fold increase; H3 acetylation (Fold increase) (Acetylated histone (H3); 10 μM): 7.7 Fold increase |
| COc1ccc(/C=C(/C(=O)NCc2ccc(C(=O)Nc3ccccc3N)cc2)c2ccc(C)cc2)cc1OC [Compound 29, N-(2-Aminophenyl)-4-((3-(3,4-dimethoxyphenyl)-2-(4-methylphenyl)acrylamido)methyl)benzamide] | 11 | > 100 | 45 | 4.8 | 34.2 | 52.8 | 34 | 3.1 | > 100 | > 100 | 0.3 | > 100 | 40 | 0.057 |  |
| COc1ccc(/C=C(/C(=O)NCc2ccc(C(=O)Nc3ccccc3N)cc2)c2ccccc2)cc1OC [Compound 31, N-(2-Aminophenyl)-4-((3-(3,4-dimethoxyphenyl)-2-phenylacrylamido)methyl)benzamide] | 3.8 | > 100 | 50 | 1.6 | 36.5 | 65.5 | 7.9 | 1.1 | > 100 | > 100 | 0.02 | > 100 | 40 | 0.054 | P21 induction (Fold increase) (p21; 1 μM): 1.2 Fold increase; P21 induction (Fold increase) (p21; 10 μM): 2.8 Fold increase; Tubulin acetylation (Fold increase) (acetylated Tubulin; 1 μM): 1.2 Fold increase; Tubulin acetylation (Fold increase) (acetylated Tubulin; 10 μM): 2.1 Fold increase; H3 acetylation (Fold increase) (Acetylated histone (H3); 1 μM): 0.9 Fold increase; H3 acetylation (Fold increase) (Acetylated histone (H3); 10 μM): 1.7 Fold increase |
| COc1ccc(/C=C(/C(=O)NCc2ccc(C(=O)Nc3ccccc3N)cc2)c2cccc(F)c2)cc1OC [Compound 32, N-(2-Aminophenyl)-4-((3-(3,4-dimethoxyphenyl)-2-(3-fluorophenyl)acrylamido)methyl)benzamide] | 2.1 | > 100 | 48 | 1.3 | 39.9 | 61.2 | 4.8 | 1.8 | > 100 | > 100 |  | > 100 | 100 | 0.052 |  |
| COc1cc(/C=C(/C(=O)NCc2ccc(C(=O)NO)cc2)c2ccc(F)cc2)ccc1F [Compound 60, 4-((2-(4-Fluorophenyl)-3-(4-fluoro-3-methoxyphenyl)acrylamido)methyl)-N-hydroxybenzamide] | 17 | 99 | 38 | 17.3 | 66.6 | 95.0 |  | 25 | 80 | 50 | 10 | 81 | 50 |  |  |
| Nc1ccccc1NC(=O)c1ccc(CNC(=O)/C(=C/c2ccc(F)c(F)c2)c2ccc(F)cc2)cc1 [Compound 1, N-(2-Aminophenyl)-4-((3-(3,4-difluorophenyl)-2-(4-fluorophenyl)acrylamido)methyl)benzamide] | 2.8 | 35 | 4.2 | 2.4 | 1.2 | 27.8 |  | 2.3 | 52 | 5.4 | 2.2 | 27 | 4.9 |  |  |
| CSc1ccc(/C=C(/C(=O)NCCCCCC(=O)NO)c2ccc(C)cc2)cc1 [Compound 96, 6-(2-(4-Methylphenyl)-3-(4-methylthiophenyl)acrylamido)-N-hydroxy hexanamide] |  |  |  |  | 84.1 | 98.5 | 0.01 |  |  |  |  |  |  |  | GI50 (U251 (glioma) cells; U-251, 48 h): 8 µM; LC50 (concentration giving 50% net cell kill relative to the time-zero cell count) (U251 (glioma) cells; U-251, 48 h): 60 µM; IC (TGI) (U251 (glioma) cells; U-251, 48 h): 22 µM; GI50 [1]: 7.3 µM; GI50 (NCIH460 (lung) cells; NCI-H460, 48 h): 8 µM; LC50 (NCIH460 (lung) cells; NCI-H460, 48 h): 60 µM; IC (TGI) (NCIH460 (lung) cells; NCI-H460, 48 h): 21 µM; GI50 (HCT 116 (colon) cells; HCT-116, 48 h): 6 µM; CC50 (HCT 116 (colon) cells; HCT-116, 48 h): > 100 µM; IC (TGI) (HCT 116 (colon) cells; HCT-116, 48 h): 27 µM |
